Source: patent US10729749B2, “Neurodegenerative disorders” (priority 2014, dated 2020)
Ends that are not written are not given here.

Experiments:
Type in all cases: cell-based
PC12 cells [1] = experiment: Value coefficient (AChE release vs PC12 cell viability) and filter selection; details: for Value AChE/Viability: 1.0 to 1.1 = protective, control = 1
From the text: AChE release vs PC12 cell viability (for which there is a significant negative correlation); • 2. In silico binding to the allosteric site of the α7 nicotinic-receptor; • 3. Calcium influx into PC12 cells; and • 4. Peptide size.

PC12 cells [2] = experiment: Acetylcholinesterase activity assay (AChE release from PC12 cells, Ellman reagent); details: % AChE release compared to untreated control
Method: AChE activity was measured using the Ellman reagent that measures the presence of thiol groups as a result of AChE activity. Cells were plated the day before the experiment as for the cell viability assay. […] The Ellman reagent was prepared as a mixture of the 3 solutions in a ratio 33(A):3(B):4(C). Absorbance measurements were taken at regular intervals (3, 10, 30 and 60 mins) across experiments at 405 nm.

[3] = Cell viability assay (Cell Counting Kit-8); details: % PC12 cell viability compared to untreated control;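 further: PC12 cells in 96-well plates, WST-8 turned into formazan by cellular dehydrogenases, absorbance read at 450 nm after 2 h with the reagent, signal proportional to living cell number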
From the text: A Cell Counting Kit-8 (CCK-8) was used as an improvement of the SRB technique used before. By utilizing the highly water-soluble tetrazolium salt WST-8, CCK-8 produces a water-soluble formazan dye upon reduction in the presence of an electron carrier. WST-8 is reduced by dehydrogenases in cells to give a yellow colored product (formazan), which is soluble in the tissue culture medium. The amount of the formazan dye generated by the activity of dehydrogenases in cells is directly proportional to the number of living cells. PC12 cells are plated in 200 μl of complete growth medium the day before the experiment in 96 well plates. […] Subsequently, 100 μl of growth medium is removed and 10 μl of CCK-8 (Cell Counting Kit-8) solution is added. The plate is incubated for 2 hours in the incubator and then placed in the absorbance plate reader. The absorbance must be measured at 450 nm.

PC12 cells [4] = experiment: Calcium fluorometry (Fluo-8, acetylcholine-induced calcium influx); set-up: Calcium: scale not given here; details: calcium influx value, control based on acetylcholine alone
From the text: A final criterion used to determine active peptides is the amount of calcium influx into PC12 cells caused by the peptide. The calcium influx value can be calculated as described in the methods section. The calcium value corresponds to the result from the experiment when applying T30 or Aβ alone or in conjunction with the small peptides. The control value for these experiments is based on the calcium influx induced by acetylcholine alone. Preferably, the peptide, derivative or analogue thereof has a calcium influx value of less than 120, and more preferably a value of 97-120.
PC12 cells are plated in 200 μl of complete growth medium the day before the experiment in 96 well plates. On the day of the experiment, the Fluo-8 solution (Abcam) is prepared (as per provider protocol). Subsequently, 100 μl of growth medium is removed and 100 μl of Fluo-8 solution is added. Treatments with T30 or Aβ in conjunction with NBP-14 or small peptides are added and incubated for 30 minutes in the incubator and 30 minutes room temperature.
After 1 hour, the plate is placed in the fluorescence plate reader (Fluostar). Before reading the fluorescence, acetylcholine (ACh) 100 μM is prepared and placed in the Fluostar injector. For each well, the reading will be formed by a basal fluorescence followed by acetylcholine injection that will induce an increase of calcium via nicotinic receptors. The effects of the peptides are then evaluated.

[5] = T30 5 μM + small peptide 0.5 μM
[6] = filters: value coefficient, in silico binding, calcium influx, peptide size

MVHWKAEFHRWS [NBP-1213]
Value AChE/Viability (PC12 cells [1]; Aβ 5 μM + small peptide 0.5 μM): 1.03 | AChE (PC12 cells [2]; Aβ 5 μM + small peptide 0.5 μM): 93.73% | viability ([3]; Aβ 5 μM + small peptide 0.5 μM): 90.8% | Calcium (PC12 cells [4]; Aβ + small peptide): 146.97

MVHWKAEFHRWSS [NBP-1313]
Value AChE/Viability (PC12 cells [1]; [5]): 1.05 | AChE (PC12 cells [2]; [5]): 93.64% | viability [3, 5]: 89% | Calcium (PC12 cells [4]; T30 + small peptide): 118.94

MVHWKAEFHRWSSY [NBP-1413]
Value AChE/Viability (PC12 cells [1]; Aβ 5 μM + small peptide 0.5 μM): 1.05 | AChE (PC12 cells [2]; Aβ 5 μM + small peptide 0.5 μM): 99.85% | viability ([3]; Aβ 5 μM + small peptide 0.5 μM): 95.2% | Calcium (PC12 cells [4]; Aβ + small peptide): 125.28

RWSSY [NBP-508]
Value AChE/Viability (PC12 cells [1]; Aβ 5 μM + small peptide 0.5 μM): 1.09 | AChE (PC12 cells [2]; Aβ 5 μM + small peptide 0.5 μM): 106.06% | viability ([3]; Aβ 5 μM + small peptide 0.5 μM): 97.6% | Calcium (PC12 cells [4]; Aβ + small peptide): 120.72

RWSSYMV [NBP-708, RWSSYMV]
Value AChE/Viability (PC12 cells [1]; [5]): 1 | neuroprotective agent against T30 when all four filters are taken into consideration (PC12 cells [1]; [6]): neuroprotective agents against T30 | AChE (PC12 cells [2]; [5]): 97.79% | viability [3, 5]: 97.8% | Calcium (PC12 cells [4]; T30 + small peptide): 97.04

RWSSYMVHWKA [NBP-1108]
Value AChE/Viability (PC12 cells [1]; Aβ 5 μM + small peptide 0.5 μM): 1.06 | AChE (PC12 cells [2]; Aβ 5 μM + small peptide 0.5 μM): 82.74% | viability ([3]; Aβ 5 μM + small peptide 0.5 μM): 77.7% | Calcium (PC12 cells [4]; Aβ + small peptide): 392.11

RWSSYMVHWKAEFH [NBP-1408]
Value AChE/Viability (PC12 cells [1]; [5]): 1 | AChE (PC12 cells [2]; [5]): 93.64% | viability [3, 5]: 93.6% | Calcium (PC12 cells [4]; T30 + small peptide): 80.25

SSYMV [NBP-510]
Value AChE/Viability (PC12 cells [1]; Aβ 5 μM + small peptide 0.5 μM): 1.03 | AChE (PC12 cells [2]; Aβ 5 μM + small peptide 0.5 μM): 104.25% | viability ([3]; Aβ 5 μM + small peptide 0.5 μM): 101% | Calcium (PC12 cells [4]; Aβ + small peptide): 167.56

SSYMVHW [NBP-710, SSYMVHW]
Value AChE/Viability (PC12 cells [1]; Aβ 5 μM + small peptide 0.5 μM): 1 | neuroprotective agent against Aβ when all four filters are taken into consideration (PC12 cells [1]; [6]): agents against Aβ | AChE (PC12 cells [2]; Aβ 5 μM + small peptide 0.5 μM): 108.85% | viability ([3]; Aβ 5 μM + small peptide 0.5 μM): 109% | Calcium (PC12 cells [4]; Aβ + small peptide): 114.33

SSYMVHWK [NBP-810]
Value AChE/Viability (PC12 cells [1]; Aβ 5 μM + small peptide 0.5 μM): 1.01 | AChE (PC12 cells [2]; Aβ 5 μM + small peptide 0.5 μM): 96.22% | viability ([3]; Aβ 5 μM + small peptide 0.5 μM): 95.3% | Calcium (PC12 cells [4]; Aβ + small peptide): 156.05

SSYMVHWKAEFH [NBP-1210]
Value AChE/Viability (PC12 cells [1]; Aβ 5 μM + small peptide 0.5 μM): 1.01 | AChE (PC12 cells [2]; Aβ 5 μM + small peptide 0.5 μM): 98.18% | viability ([3]; Aβ 5 μM + small peptide 0.5 μM): 97.5% | Calcium (PC12 cells [4]; Aβ + small peptide): 127.83

SSYMVHWKAEFHRW [NBP-1410]
Value AChE/Viability (PC12 cells [1]; Aβ 5 μM + small peptide 0.5 μM): 1 | Value AChE/Viability (PC12 cells [1]; [5]): 1 | AChE (PC12 cells [2]; Aβ 5 μM + small peptide 0.5 μM): 93.51% | AChE (PC12 cells [2]; [5]): 93.51% | viability ([3]; Aβ 5 μM + small peptide 0.5 μM): 93.5% | viability [3, 5]: 93.5% | Calcium (PC12 cells [4]; Aβ + small peptide): 160.54 | Calcium (PC12 cells [4]; T30 + small peptide): 120.09

SYMVHW [NBP-611, SYMVHW]
Value AChE/Viability (PC12 cells [1]; Aβ 5 μM + small peptide 0.5 μM): 1.08 | neuroprotective agent against Aβ when all four filters are taken into consideration (PC12 cells [1]; [6]): agents against Aβ | AChE (PC12 cells [2]; Aβ 5 μM + small peptide 0.5 μM): 88.60% | viability ([3]; Aβ 5 μM + small peptide 0.5 μM): 82.2% | Calcium (PC12 cells [4]; Aβ + small peptide): 114.39

SYMVHWK [NBP-711]
Value AChE/Viability (PC12 cells [1]; Aβ 5 μM + small peptide 0.5 μM): 1.02 | AChE (PC12 cells [2]; Aβ 5 μM + small peptide 0.5 μM): 108.57% | viability ([3]; Aβ 5 μM + small peptide 0.5 μM): 106% | Calcium (PC12 cells [4]; Aβ + small peptide): 148.17

SYMVHWKAEF [NBP-1011]
Value AChE/Viability (PC12 cells [1]; Aβ 5 μM + small peptide 0.5 μM): 1.03 | AChE (PC12 cells [2]; Aβ 5 μM + small peptide 0.5 μM): 84.13% | viability ([3]; Aβ 5 μM + small peptide 0.5 μM): 81.7% | Calcium (PC12 cells [4]; Aβ + small peptide): 161.87

SYMVHWKAEFHRW [NBP-1311]
Value AChE/Viability (PC12 cells [1]; Aβ 5 μM + small peptide 0.5 μM): 1.09 | AChE (PC12 cells [2]; Aβ 5 μM + small peptide 0.5 μM): 93.51% | viability ([3]; Aβ 5 μM + small peptide 0.5 μM): 86.1% | Calcium (PC12 cells [4]; Aβ + small peptide): 137.63

VHWKAE [NBP-614]
Value AChE/Viability (PC12 cells [1]; Aβ 5 μM + small peptide 0.5 μM): 1.09 | AChE (PC12 cells [2]; Aβ 5 μM + small peptide 0.5 μM): 85.05% | viability ([3]; Aβ 5 μM + small peptide 0.5 μM): 77.7% | Calcium (PC12 cells [4]; Aβ + small peptide): 124.34

VHWKAEFHRWSS [NBP-1214]
Value AChE/Viability (PC12 cells [1]; Aβ 5 μM + small peptide 0.5 μM): 1.04 | AChE (PC12 cells [2]; Aβ 5 μM + small peptide 0.5 μM): 89.28% | viability ([3]; Aβ 5 μM + small peptide 0.5 μM): 85.5% | Calcium (PC12 cells [4]; Aβ + small peptide): 217.64

VHWKAEFHRWSSY [NBP-1314]
Value AChE/Viability (PC12 cells [1]; Aβ 5 μM + small peptide 0.5 μM): 1.06 | AChE (PC12 cells [2]; Aβ 5 μM + small peptide 0.5 μM): 104.08% | viability ([3]; Aβ 5 μM + small peptide 0.5 μM): 97.9% | Calcium (PC12 cells [4]; Aβ + small peptide): 130.85

WKAEFH [NBP-602]
Value AChE/Viability (PC12 cells [1]; [5]): 1.04 | AChE (PC12 cells [2]; [5]): 112.32% | viability [3, 5]: 108% | Calcium (PC12 cells [4]; T30 + small peptide): 169.86

WKAEFHRWSSY [NBP-1102]
Value AChE/Viability (PC12 cells [1]; [5]): 1 | AChE (PC12 cells [2]; [5]): 104.31% | viability [3, 5]: 104% | Calcium (PC12 cells [4]; T30 + small peptide): 89.28

WKAEFHRWSSYMVH [NBP-1402]
Value AChE/Viability (PC12 cells [1]; Aβ 5 μM + small peptide 0.5 μM): 1.09 | AChE (PC12 cells [2]; Aβ 5 μM + small peptide 0.5 μM): 99.85% | viability ([3]; Aβ 5 μM + small peptide 0.5 μM): 91.6% | Calcium (PC12 cells [4]; Aβ + small peptide): 127.81

WSSYM [NBP-509]
Value AChE/Viability (PC12 cells [1]; Aβ 5 μM + small peptide 0.5 μM): 1.04 | AChE (PC12 cells [2]; Aβ 5 μM + small peptide 0.5 μM): 106.20% | viability ([3]; Aβ 5 μM + small peptide 0.5 μM): 102% | Calcium (PC12 cells [4]; Aβ + small peptide): 363.48

WSSYMVH [NBP-709]
Value AChE/Viability (PC12 cells [1]; Aβ 5 μM + small peptide 0.5 μM): 1.07 | AChE (PC12 cells [2]; Aβ 5 μM + small peptide 0.5 μM): 108.99% | viability ([3]; Aβ 5 μM + small peptide 0.5 μM): 102% | Calcium (PC12 cells [4]; Aβ + small peptide): 288.61

WSSYMVHWKA [NBP-1009]
Value AChE/Viability (PC12 cells [1]; Aβ 5 μM + small peptide 0.5 μM): 1.04 | AChE (PC12 cells [2]; Aβ 5 μM + small peptide 0.5 μM): 101.23% | viability ([3]; Aβ 5 μM + small peptide 0.5 μM): 97.5% | Calcium (PC12 cells [4]; Aβ + small peptide): 255.80
